These results are taken from patent US8143374B2, “Polypeptide derivatives of parathyroid hormone (PTH)” (The General Hospital Corporation, priority 2006, dated 2012).

Data set [1] in a line: Circular dichroism spectroscopy, helical residues per peptide chain. Type of data set: physicochemical. The conditions noted are these: calculated from [θ]222. The procedure: Circular Dichroism—CD spectra were obtained on a JASCO J-600 spectropolarimeter at 20° C. Four spectra were averaged and the data smoothed by the JASCO software. The instrument was calibrated with ammonium (+)-10-camphorsulfonate. Peptide concentrations were verified from the absorption at 280 nm, using an extinction coefficient of 5700 M^−1 for the single tryptophan. Data are expressed as the number of helical residues per peptide chain, as calculated from −[θ]222×30/28,000, where [θ]222 is the mean residue elipticity ([θ]) at 222 nm, as was described previously (Barbier, J. R., et al. (2005) J Biol Chem. 280:23771-23777).

Data set [2] concerns the target T1, PTHR-delNt (Homo sapiens, UniProt Q03431, DEL24-181).
T1 construct: expressed in transfected cells; host or cells: COS-7 cells, transient co-transfection; membranes prepared
T1 sequence (Q03431 with tags, fused parts or gaps DEL24-181): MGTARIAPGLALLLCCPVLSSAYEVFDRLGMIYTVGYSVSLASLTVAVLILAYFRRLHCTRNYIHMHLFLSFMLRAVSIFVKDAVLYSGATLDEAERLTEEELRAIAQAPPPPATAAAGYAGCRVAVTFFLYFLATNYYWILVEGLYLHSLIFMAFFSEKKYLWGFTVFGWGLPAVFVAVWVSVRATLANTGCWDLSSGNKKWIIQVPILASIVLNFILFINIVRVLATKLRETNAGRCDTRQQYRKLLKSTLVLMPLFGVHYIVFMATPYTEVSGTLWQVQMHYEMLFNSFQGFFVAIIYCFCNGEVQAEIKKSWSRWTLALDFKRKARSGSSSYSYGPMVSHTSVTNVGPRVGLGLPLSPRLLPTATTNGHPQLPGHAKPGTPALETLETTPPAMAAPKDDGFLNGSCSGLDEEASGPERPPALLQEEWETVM
Briefly: Competition binding in COS-7 cell membranes with 125I-[Aib1,3,M]PTH(1-15)NH2 tracer. The conditions noted are these: COS-7 membranes cotransfected with negative-dominant Gαs, read-out: PTHR-delNT (COS-7) IC50. How it is done: PTHR-delNt is a derivative of the human PTHR that is deleted for most (Ala^24-Arg^181) of the amino-terminal extracellular domain (Shimizu, M., et al. (2001) Endocrinology 142:3068-3074). This PTHR construct was expressed in COS-7 cells via transient DNA transfection. For cAMP assays, the cells were transfected in 24-well plates using 0.2 μg of plasmid DNA and 0.6 μl of Fugene-6 reagent (Roche Diagnostics, Indianapolis Ind.) per well, and assays were performed on the intact cells three to four days after transfection. For binding assays, cell membranes were prepared from transfected COS-7 cells. To increase the maximal binding of ^125I-[Aib^1,3,M]PTH(1-15)NH2 to PTHR-delNt in these membranes, the cells were cotransfected with a negative dominant mutant Gαs protein (Gαs^ND). This mutant Gαs subunit is thought to couple to cognate receptors, and thus stabilize high affinity receptor conformations, more efficiently than does wild-type Gαs, without increasing basal cAMP levels (Berlot, C. H. (2002) J Biol Chem 277:21080-5). A precursor of this mutant Gαs, Gαs(α3β5), was recently used to increase binding of ^125I-[Aib^1,3,M]PTH(1-15)NH2 to PTHR-delNt in COS-7 cell membranes (Dean, T., (2006) Mol Endocrinol 20:931-942). Gαs^ND, which contains the same five amino acid replacement of corresponding Gαi residues in the α3β5 loop as Gαs(α3β5), plus the point mutations of Gly^226 to Ala, which increases affinity for Gβ/γ, and Ala^366 to Ser, which decreases affinity for GDP, yields approximately two-fold higher levels of specific binding of ^125I-[Aib^1,3,M]PTH(1-15)NH2 than does Gαs(α3β5) (data not shown). For the current membrane preparations, COS-7 cells were co-transfected in six-well plates using 1 μg of each plasmid DNA encoding PTHR-delNt and Gαs^ND, and 6 μl of Fugene-6 reagent (Roche Diagnostics, Indianapolis Ind.) per well. Cells were harvested three days after transfection, and membranes were prepared as described (Dean, T., et al. (2006) Mol Endocrinol 20:931-942).
Receptor binding—Binding to the wild-type human PTHR in intact HKRK-B7 cells and ROS 17/2.8 cells was assessed using ^125I-PTH(1-34) as a tracer radioligand, as described (Shimizu, M., (2001) Endocrinology 142:3068-3074). In brief, the cells in 24-well plates (about 500,000 cells per well) were incubated in binding buffer containing radioligand (about 100,000 cpm per well) with or without unlabeled peptide ligand (3×10^−9 to 1×10^−5 M) for four hours at 15° C. The binding mixture was then removed by aspiration, the cells were rinsed three times with binding buffer, lysed in 1 M NaOH, and the entire lysate was counted for gamma-irradiation in a gamma counter. Binding to PTHR-delNt in COS-7 cell membranes was assessed in 96-well, vacuum filtration plates (Multiscreen-Durapore HV, […] membranes, Millipore Corp., Millford, Mass.) using ^125I-[Aib^1,3,M]PTH(1-15)NH2 as a tracer radioligand, as described (Dean, T., (2006) Mol Endocrinol 20:931-942). In brief, cell membranes (20 μg/well) were incubated in membrane binding buffer containing radioligand (30,000 cpm/well) with or without unlabeled peptide ligand (3×10^−9 to 1×10^−5 M) for 90 minutes at 21° C. The plates were then subject to rapid vacuum filtration, the filters were washed once with buffer, detached from the plate and counted for gamma-irradiation in a gamma counter. Non-specific binding was defined as the binding observed in the presence of 1×10^−6 M PTH(1-31)NH2 for HKRK-B7 and ROS 17/2.8 cells, and 1×10^−6 M [Aib^1,3,M]PTH(1-15)NH2 for PTHR-delNt. Specifically bound radioactivity was calculated as a percentage of the radioactivity specifically bound in the absence of competing ligand. […]

Where [3] appears, read: [Ala1,Arg19]hPTH(1-31)NH2 analogs.

Where “and” joins values, the source holds several entries; their conditions need not be identical. Equal values may be shown once. Read-outs that look alike come from different tables or passages of the source. Where a SMILES comes first, the peptide text is derived from it. Where no end group is shown, it is not given here. [ ]: non-standard residue; d: D form. hArg = N=C(N)NCCCC[C@H](N)C(=O)O; Cha = N[C@@H](CC1CCCCC1)C(=O)O; Nle = CCCC[C@H](N)C(=O)O; Aib = CC(C)(N)C(=O)O

What is called IC50 is the concentration needed to halve the response being measured. Regarding `CC[C@H](C)[C@H](NC(=O)[C@H](CCC(=O)O)NC(=O)[C@H](CO)NC(=O)[C@@H](NC(=O)[C@H](C)N)C(C)C)C(=O)N[C@@H](CCC(N)=O)C(=O)N[C@@H](CC(C)C)C(=O)N[C@@H](CCSC)C(=O)N[C@@H](Cc1c[nH]cn1)C(=O)N[C@@H](CC(N)=O)C(=O)N[C@@H](CC(C)C)C(=O)NCC(=O)N[C@@H](CCCCN)C(=O)N[C@@H](Cc1c[nH]cn1)C(=O)N[C@@H](CC(C)C)C(=O)N[C@@H](CC(N)=O)C(=O)N[C@@H](CO)C(=O)N[C@@H](CCSC)C(=O)N[C@@H](CC1CCCCC1)C(=O)N[C@@H](CCCNC(=N)N)C(=O)N[C@H](C(=O)N[C@@H](CCC(=O)O)C(=O)N[C@@H](Cc1c[nH]c2ccccc12)C(=O)N[C@@H](CC(C)C)C(=O)N[C@@H](CCCNC(=N)N)C(=O)N[C@@H](CCCCN)C(=O)N[C@@H](CCCCN)C(=O)N[C@@H](CC(C)C)C(=O)N[C@@H](CCC(N)=O)C(=O)N[C@@H](CC(=O)O)C(=O)N[C@H](C(N)=O)C(C)C)C(C)C` [Arg^19→Cha] (H-AVSEIQLMHNLGKHLNSM[Cha]RVEWLRKKLQDV-NH2; N-terminus assumed), the CD helical residues in data set [1] (setting [3]) is reported as 10. Moreover, in data set [2] (setting [3]), the half-maximal inhibitory concentration (IC50) came out at 0.78 ± 0.083 µM.
Consider `CCCC[C@H](NC(=O)[C@H](CCC(=O)O)NC(=O)[C@H](CCSC)NC(=O)[C@H](CO)NC(=O)[C@H](CC(N)=O)NC(=O)[C@H](CC(C)C)NC(=O)[C@H](Cc1c[nH]cn1)NC(=O)[C@H](CCCCN)NC(=O)CNC(=O)[C@H](CC(C)C)NC(=O)[C@H](CC(N)=O)NC(=O)[C@H](Cc1c[nH]cn1)NC(=O)[C@H](CCSC)NC(=O)[C@H](CC(C)C)NC(=O)[C@H](CCC(N)=O)NC(=O)[C@@H](NC(=O)[C@H](CCC(=O)O)NC(=O)[C@H](CO)NC(=O)[C@@H](NC(=O)[C@@H](N)CO)C(C)C)[C@@H](C)CC)C(=O)N[C@H](C(=O)N[C@@H](CCC(=O)O)C(=O)N[C@@H](Cc1c[nH]c2ccccc12)C(=O)N[C@@H](CC(C)C)C(=O)N[C@@H](CCCNC(=N)N)C(=O)N[C@@H](CCCCN)C(=O)N[C@@H](CCCCN)C(=O)N[C@@H](CC(C)C)C(=O)N[C@@H](CCC(N)=O)C(=O)N[C@@H](CC(=O)O)C(=O)N[C@H](C(N)=O)C(C)C)C(C)C` [Arg^20→Nle] (H-SVSEIQLMHNLGKHLNSME[Nle]VEWLRKKLQDV-NH2; N-terminus assumed), for which the CD helical residues in data set [1] (hPTH(1-31)NH2 analogs) was 12. The 50% inhibitory concentration (IC50) in data set [2] (hPTH(1-31)NH2 analogs) was 10.7 µM.
For `CCCC[C@H](NC(=O)[C@H](CC(C)C)NC(=O)[C@H](CCC(N)=O)NC(=O)[C@@H](NC(=O)[C@H](CCC(=O)O)NC(=O)C(C)(C)NC(=O)[C@@H](NC(=O)C(C)(C)N)C(C)C)[C@@H](C)CC)C(=O)N[C@@H](Cc1c[nH]cn1)C(=O)N[C@@H](CCC(N)=O)C(=O)N[C@@H](CCCCNC(=N)N)C(=O)N[C@@H](C)C(=O)N[C@@H](CCCCN)C(=O)N[C@@H](Cc1c[nH]c2ccccc12)C(=O)N[C@@H](Cc1ccc(O)cc1)C(N)=O` [[Aib^1,3,M]PTH(1-15), [Aib^1,3,Nle^8,Gln^10,homoarginine^11,Ala^12,Trp^14,Tyr^15]PTH(1-15)NH2, reference compound] (H-[Aib]V[Aib]EIQL[Nle]HQ[hArg]AKWY-NH2; N-terminus assumed), the IC50 in data set [2] (hPTH(1-31)NH2 analogs) stood at 0.0022 ± 0.0005 µM.
Turning to “AVSEIQLMHNLGKHLNSMRRVEWLRKKLQDV-NH2 [[Ala^1,Arg^19]PTH(1-31)NH2]”, in data set [2] (setting [3]), the IC50 is 0.4 µM and 0.397 µM.
